{
  "source": "patent US10767160B2",
  "about": "“Methods for modulating production profiles of recombinant proteins” (ARES TRADING S.A., priority 2015, dated 2020)",
  "key": {"[1]": {"test_system": "CHO-S cells expressing IgG1 mAb1", "test": "Fed-batch culture in Spin Tubes, host cells expressing mAb1", "assay_type": "cell-based, Chinese Hamster", "description": "(§1) Assays were performed with 2 CHO cell lines: • CHO-S cells expressing IgG1 mAb1, herein “Cells mAb1” or “mAb1 cells”. “mAb1” is a fully human monoclonal antibody directed against a soluble protein. Its isoelectric point (pI) is about 8.20-8.30. • CHO-K1 cells expressing IgG1 mAb2, herein “Cells mAb2” or “mAb2 cells”. “mAb2” is a humanised monoclonal antibody directed against a receptor found on the cell membrane. Its isoelectric point (pI) is about 9.30. 2) Cell Expansion\n(§2) Cells expressing mAb2 were inoculated at 0.2×10^6 cells per millilitre (mL), whereas cells expressing mAb1 were inoculated at 0.3×10^6 cells per mL.\n(§3) All assays were performed in fed-batch culture. The host cells were cultured in fed-batch system either in microplates (“Deep well plate”) or in Spin Tubes®, and incubated at 36.5° C., 90% relative humidity, 5% CO2 and 320 rpm shaking during 14 days.\n(§4) Viable cell density and viability were measured with the Guava easyCyte® flow cytometer or with the ViCell.\n(§5) Antibody titres were measured with the fortêBIO Octet® or with Biacore C®.\n(§6) Glycosylation profiles were established by capillary gel electrophoresis with laser-induced fluorescence (CGE-LIF). Dosages of aggregates and fragments were performed respectively via Size Exclusion High Performance Liquid Chromatography (SE-HPLC) and SDS-capillary gel electrophoresis."}, "[2]": {"test_system": "CHO-K1 cells expressing IgG1 mAb2", "assay_type": "cell-based, Chinese Hamster", "description": "as §1, §2, §3, §4, §5, §6"}, "[3]": {"test_system": "CHO-S cells expressing IgG1 mAb1", "test": "Fed-batch culture in microplates, host cells expressing mAb1", "assay_type": "cell-based, Chinese Hamster", "description": "as §1, §2, §3, §4, §5, §6"}, "recombinant CHO cells [4]": {"test_system": "recombinant CHO cells", "conditions": "perfusion batch culture, within 6 days of treatment; cited from earlier work"}, "recombinant CHO cells [5]": {"test_system": "recombinant CHO cells", "conditions": "batch culture, end of production run, after 8 days of culture; cited from earlier work"}, "[6]": {"conditions": "similar concentrations (8.5 μM), Spin tubes"}, "[7]": {"conditions": "about 167 μM or about 417 μM, microplates"}, "[8]": {"conditions": "up to 25 μM and 41.7 μM, microplates"}, "[9]": {"conditions": "about 4.3 and/or about 8.5 μM, Spin Tubes"}, "[10]": {"conditions": "about 0.4 μM to about 17 μM, microplates"}, "[11]": {"conditions": "about 83 μM to about 833 μM, microplates"}},
  "note": "Read-outs that look alike come from different tables or passages of the source.",
  "data": [
    {"smiles": "Nc1c(S(=O)(=O)O)cc(Nc2ccc(Nc3nc(Cl)nc(Nc4ccccc4S(=O)(=O)O)n3)c(S(=O)(=O)O)c2)c2c1C(=O)c1ccccc1C2=O", "note": "[Cibacron Blue 3GA]", "values": [
      {"measurement": "specific productivity", "setting": "[1]; 8.5 μM, Spin tubes", "value": "significantly increased"},
      {"measurement": "titre increase at the end of the culture", "setting": "[1]; 8.5 μM, Spin tubes", "value": 1.25, "unit": "factor"},
      {"measurement": "maximum density of viable cells", "setting": "[1]; 8.5 μM, days 6-9, Spin tubes", "value": "increased"},
      {"measurement": "viability compared to control", "setting": "[1]; 8.5 μM, starting on day 7, Spin tubes", "value": "decrease of viability"},
      {"measurement": "productivity of antibodies mAb2", "setting": "[2]; [6]", "value": "increased"},
      {"measurement": "titre multiplied at the end of cell culture", "setting": "[2]; [6]", "value": 1.2},
      {"measurement": "titre", "setting": "[3]; about 83 μM, microplates", "value": "still significantly increased"},
      {"measurement": "cell viability", "setting": "[3]; [7]", "value": "decreased"},
      {"measurement": "titre", "setting": "[3]; [7]", "value": "impact on the titre was observed"},
      {"measurement": "quantity of secreted recombinant protein (titre) compared to control", "setting": "[3]; about 8.3 to about 41.7 μM, microplates", "value": 1.5, "unit": "fold"},
      {"measurement": "titre", "setting": "[3]; [8]", "value": "increased significantly"},
      {"measurement": "viable cell density", "setting": "[3]; [8]", "value": "increased significantly"}
    ]},
    {"smiles": "O=S(=O)(O)c1cc(Nc2nc(Cl)nc(Nc3ccc(Nc4nc(Cl)nc(Nc5cc(S(=O)(=O)O)cc6cc(S(=O)(=O)O)c(N=Nc7ccccc7S(=O)(=O)O)c(O)c56)n4)cc3)n2)c2c(O)c(N=Nc3ccccc3S(=O)(=O)O)c(S(=O)(=O)O)cc2c1", "note": "[Reactive Red 120]", "values": [
      {"measurement": "titre increase", "setting": "[1]; 8.6 μM, Spin Tubes", "value": 1.2, "unit": "factor"},
      {"measurement": "cell viability compared to control", "setting": "[1]; about 4.3 and/or about 8.5 μM, after day 10, Spin Tubes", "value": "only slightly affected"},
      {"measurement": "viable cell density", "setting": "[1]; about 4.3 and/or about 8.5 μM, days 5-9, Spin Tubes", "value": "increased"},
      {"measurement": "specific productivity", "setting": "[2]; [9]", "value": "increase"},
      {"measurement": "titre", "setting": "[2]; [9]", "value": "increase"},
      {"measurement": "viability compared to control", "setting": "[2]; until the end of the culture, Spin Tubes", "value": "maintained"},
      {"measurement": "viable cell density increase compared to control", "setting": "[3]; 17.3 μM, day 7, microplates", "value": 1.5, "unit": "factor"},
      {"measurement": "titre increase compared to control", "setting": "[3]; 17.3 μM, day 14, microplates", "value": 1.3, "unit": "factor"},
      {"measurement": "maximum titre relative to control cells", "setting": "[3]; 83 μM, microplates", "value": 1.2, "unit": "fold"},
      {"measurement": "cell viability", "setting": "[3]; [10]", "value": "(slightly) reduced"},
      {"measurement": "titre", "setting": "[3]; [10]", "value": "increased significantly"},
      {"measurement": "viable cell density", "setting": "[3]; [10]", "value": "increased significantly"},
      {"measurement": "toxicity limit", "setting": "[3]; about 17 μM, microplates", "value": "did not seem to have been reached"},
      {"measurement": "cell viability", "setting": "[3]; [11]", "value": "decrease significantly"},
      {"measurement": "titre", "setting": "[3]; [11]", "value": "remained superior or equal to what was obtained with control cells"},
      {"measurement": "viable cell density", "setting": "[3]; [11]", "value": "decrease significantly"},
      {"measurement": "toxicity", "setting": "[3]; above 83 μM, microplates", "value": "becomes toxic"}
    ]},
    {"smiles": "CCCC(=O)[O-].[Na+]", "note": "[sodium butyrate]", "values": [
      {"measurement": "cell viability", "setting": "recombinant CHO cells [4]", "value": 15, "unit": "%"},
      {"measurement": "cell viability", "setting": "recombinant CHO cells [5]", "value": "less than 45%"}
    ]}
  ]
}
